According to ChEMBL document CHEMBL5380860, “Design, Synthesis, and Antitumor Activity of Potent and Selective EGFR L858R/T790M Inhibitors and Identification of a Combination Therapy to Overcome Acquired Resistance in Models of Non-small-cell Lung Cancer” (J Med Chem, 2023):

Columns and labels:
[1] = test system: HCC827; test: Induction of cell cycle arrest in human HCC827 cells assessed as accumulation of cells at G1 phase at 1 uM incubated for 48 hrs by PI staining based flow cytometry (reference value: 65.2%); assay type: functional
[2] = test system: A-431; test: Induction of cell cycle arrest in human A-431 cells assessed as accumulation of cells at G2 phase at 0.1 uM incubated for 48 hrs by PI staining based flow cytometry (reference value: 21.7%); assay type: toxicity; settings: a-431, 48 h
[3] = test system: HCC827; test: Induction of cell cycle arrest in human HCC827 cells assessed as accumulation of cells at G1 phase at 0.1 uM incubated for 48 hrs by PI staining based flow cytometry (reference value: 65.2%); assay type: functional
[4] = test system: HCC827; test: Induction of apoptosis in human HCC827 cells assessed as late apoptotic cells at 1 uM incubated for 48 hrs by AnnexinV-FITC/PI staining based flow cytometry (reference value: 1.75%); assay type: functional
[5] = test system: A549; test: Induction of cell cycle arrest in human A549 cells assessed as accumulation of cells at G1 phase at 0.1 uM incubated for 48 hrs by PI staining based flow cytometry (reference value: 52.4%); assay type: toxicity; settings: a549, 48 h
[6] = test system: HCC827; test: Induction of cell cycle arrest in human HCC827 cells assessed as accumulation of cells at S phase at 0.1 uM incubated for 48 hrs by PI staining based flow cytometry (reference value: 15.2%); assay type: functional
[7] = test system: A549; test: Induction of apoptosis in human A549 cells assessed as early apoptotic cells at 10 uM incubated for 48 hrs by AnnexinV-FITC/PI staining based flow cytometry (reference value: 3.89%); assay type: toxicity, cell-based; settings: a549, 48 h
[8] = test system: HCC827; test: Induction of cell cycle arrest in human HCC827 cells assessed as accumulation of cells at G1 phase at 10 uM incubated for 48 hrs by PI staining based flow cytometry (reference value: 65.2%); assay type: functional
[9] = test system: A-431; test: Induction of apoptosis in human A-431 cells assessed as early apoptotic cells at 10 uM incubated for 48 hrs by AnnexinV-FITC/PI staining based flow cytometry (reference value: 1.37%); assay type: toxicity, cell-based; settings: a-431, 48 h
[10] = test system: NCI-H1975; test: Induction of cell cycle arrest in human NCI-H1975 cells assessed as accumulation of cells at G1 phase at 1 uM incubated for 48 hrs by PI staining based flow cytometry (reference value: 50.1%); assay type: functional
[11] = test system: A549; test: Induction of cell cycle arrest in human A549 cells assessed as accumulation of cells at S phase at 0.1 uM incubated for 48 hrs by PI staining based flow cytometry (reference value: 29.4%); assay type: toxicity; settings: a549, 48 h
[12] = test system: NCI-H1975; test: Induction of apoptosis in human NCI-H1975 cells assessed as early apoptotic cells at 10 uM incubated for 48 hrs by AnnexinV-FITC/PI staining based flow cytometry (reference value: 0.61%); assay type: functional
[13] = test system: A-431; test: Induction of cell cycle arrest in human A-431 cells assessed as accumulation of cells at G1 phase at 1 uM incubated for 48 hrs by PI staining based flow cytometry (reference value: 46.9%); assay type: toxicity; settings: a-431, 48 h
[14] = test system: HCC827; test: Induction of cell cycle arrest in human HCC827 cells assessed as accumulation of cells at G2 phase at 10 uM incubated for 48 hrs by PI staining based flow cytometry (reference value: 25.9%); assay type: functional
[15] = test system: A-431; test: Induction of cell cycle arrest in human A-431 cells assessed as accumulation of cells at G2 phase at 1 uM incubated for 48 hrs by PI staining based flow cytometry (reference value: 21.7%); assay type: toxicity; settings: a-431, 48 h
[16] = test system: A549; test: Induction of apoptosis in human A549 cells assessed as late apoptotic cells at 10 uM incubated for 48 hrs by AnnexinV-FITC/PI staining based flow cytometry (reference value: 0.51%); assay type: toxicity, cell-based; settings: a549, 48 h
[17] = test system: NCI-H1975; test: Induction of cell cycle arrest in human NCI-H1975 cells assessed as accumulation of cells at G1 phase at 0.1 uM incubated for 48 hrs by PI staining based flow cytometry (reference value: 50.1%); assay type: functional
[18] = test system: HCC827; test: Induction of apoptosis in human HCC827 cells assessed as early apoptotic cells at 1 uM incubated for 48 hrs by AnnexinV-FITC/PI staining based flow cytometry (reference value: 0.24%); assay type: functional
[19] = test system: HCC827; test: Induction of cell cycle arrest in human HCC827 cells assessed as accumulation of cells at S phase at 10 uM incubated for 48 hrs by PI staining based flow cytometry (reference value: 15.2%); assay type: functional
[20] = test system: NCI-H1975; test: Induction of cell cycle arrest in human NCI-H1975 cells assessed as accumulation of cells at G1 phase at 10 uM incubated for 48 hrs by PI staining based flow cytometry (reference value: 50.1%); assay type: functional
[21] = test system: NCI-H1975; test: Induction of cell cycle arrest in human NCI-H1975 cells assessed as accumulation of cells at G2 phase at 0.1 uM incubated for 48 hrs by PI staining based flow cytometry (reference value: 19.3%); assay type: functional
[22] = test system: NCI-H1975; test: Induction of apoptosis in human NCI-H1975 cells assessed as early apoptotic cells at 1 uM incubated for 48 hrs by AnnexinV-FITC/PI staining based flow cytometry (reference value: 0.61%); assay type: functional
[23] = test system: A-431; test: Induction of cell cycle arrest in human A-431 cells assessed as accumulation of cells at G1 phase at 10 uM incubated for 48 hrs by PI staining based flow cytometry (reference value: 46.9%); assay type: toxicity; settings: a-431, 48 h
[24] = test system: A-431; test: Induction of apoptosis in human A-431 cells assessed as late apoptotic cells at 1 uM incubated for 48 hrs by AnnexinV-FITC/PI staining based flow cytometry (reference value: 1.86%); assay type: toxicity, cell-based; settings: a-431, 48 h
[25] = test system: HCC827; test: Induction of cell cycle arrest in human HCC827 cells assessed as accumulation of cells at G2 phase at 0.1 uM incubated for 48 hrs by PI staining based flow cytometry (reference value: 25.9%); assay type: functional
[26] = test system: NCI-H1975; test: Induction of apoptosis in human NCI-H1975 cells assessed as late apoptotic cells at 0.1 uM incubated for 48 hrs by AnnexinV-FITC/PI staining based flow cytometry (reference value: 0.79%); assay type: functional
[27] = test system: A549; test: Induction of cell cycle arrest in human A549 cells assessed as accumulation of cells at G1 phase at 1 uM incubated for 48 hrs by PI staining based flow cytometry (reference value: 52.4%); assay type: toxicity; settings: a549, 48 h
[28] = test system: HCC827; test: Induction of apoptosis in human HCC827 cells assessed as early apoptotic cells at 0.1 uM incubated for 48 hrs by AnnexinV-FITC/PI staining based flow cytometry (reference value: 0.24%); assay type: functional
[29] = test system: A-431; test: Induction of cell cycle arrest in human A-431 cells assessed as accumulation of cells at G1 phase at 0.1 uM incubated for 48 hrs by PI staining based flow cytometry (reference value: 46.9%); assay type: toxicity; settings: a-431, 48 h
[30] = test system: NCI-H1975; test: Induction of cell cycle arrest in human NCI-H1975 cells assessed as accumulation of cells at S phase at 1 uM incubated for 48 hrs by PI staining based flow cytometry (reference value: 29.8%); assay type: functional
[31] = test system: HCC827; test: Induction of apoptosis in human HCC827 cells assessed as late apoptotic cells at 0.1 uM incubated for 48 hrs by AnnexinV-FITC/PI staining based flow cytometry (reference value: 1.75%); assay type: functional
[32] = Intrinsic clearance in human liver microsomes at 1 uM measured for 60 mins by LC-MS analysis; assay type: ADME, Microsome; settings: read-out: CLH

SMILES | Activity [1] [%] | Activity [2] [%] | Activity [3] [%] | Activity [4] [%] | Activity [5] [%] | Activity [6] [%] | Activity [7] [%] | Activity [8] [%] | Activity [9] [%] | Activity [10] [%] | Activity [11] [%] | Activity [12] [%] | Activity [13] [%] | Activity [14] [%] | Activity [15] [%] | Activity [16] [%] | Activity [17] [%] | Activity [18] [%] | Activity [19] [%] | Activity [20] [%] | other results
C=CC(=O)Nc1cccc(Nc2nc(Nc3ccc(N4CCN(C)CC4)cc3)nc3ccc(F)cc23)c1 | 78.2 | 17.4 | 74 | 11.8 | 57.2 | 12 | 14.6 | 81.1 | 14.5 | 72.2 | 25.9 | 83.2 | 54.1 | 11 | 18.6 | 0.2 | 67.1 | 22.7 | 7.33 | 80.5 | Activity [21]: 15.5%; Activity [22]: 23%; Activity [23]: 64.5%; Activity [24]: 2.9%; Activity [25]: 13.5%; Activity [26]: 8.57%; Activity [27]: 61.2%; Activity [28]: 10.1%; Activity [29]: 52.6%; Activity [30]: 16.4%; Activity [31]: 8.22%; CLint scaled at 1 µM [32]: 12.8 mL/min/kg
C=CC(=O)Nc1cc(Nc2nccc(-c3cn(C)c4ccccc34)n2)c(OC)cc1N(C)CCN(C)C [OSIMERTINIB] | 77.2 | 19.9 | 72.9 | 18 | 53.4 | 11.8 | 18.6 | 79.5 | 28.1 | 71.5 | 30.9 | 42 | 52.5 | 11.6 | 19.6 | 0.47 | 64.3 | 17.2 | 8.52 | 78.3 | Activity [21]: 20.2%; Activity [22]: 17.5%; Activity [23]: 62.5%; Activity [24]: 6.74%; Activity [25]: 13.6%; Activity [26]: 9.27%; Activity [27]: 57.7%; Activity [28]: 15.2%; Activity [29]: 49.8%; Activity [30]: 18.9%; Activity [31]: 15.7%; CLint scaled at 1 µM [32]: 21.4 mL/min/kg
